# Results published in patent publication US20150283127A1, “SAQUINAVIR-NO FOR IMMUNOMODULATION” (ONCONOX APS, priority 2012, published 2015).
# Key:
# human PBMC = conditions: PMA plus ionomycin, cited from earlier work
# [1] = system: peripheral blood mononuclear cells; conditions: concentrations between 5 and 20 mM; cited from earlier work
# spleen cells = conditions: ex vivo, cited from earlier work
# rat LNC [2] = assay: Cytokine generation (ELISA) in ConA-stimulated rat LNC; format: cell-based; conditions: 24 hours, vs untreated control cells
# Description: Experimental animals (C57BL/6 mice, BALB/c mice and Dark Agouti rats) were obtained from the Animal House Facility of the Institute for Biological Research “Sinisa Stanković”, Belgrade, Serbia. Spleen cells (SPC) were isolated from murine spleens and lymph node cells (LNC) were obtained from rat cervical lymph nodes of untreated animals. Draining lymph node cells (DLNC) were obtained from popliteal lymph nodes 8-10 days after immunization of rats with myelin basic protein (guinea pig MBP, kind gift from professor Alexander Fluegel, University of Goettingen, Germany) and complete Freund's adjuvant (CFA, Difco, Detroit, Mich.). […] Obtained purity of CD4 population was more than 97% as determined by flow cytometry. […]
# Cytokine concentration in cell culture supernatants was determined by sandwich ELISA using MaxiSorp plates (Nunc, Rochild, Denmark) and anti-cytokine paired antibodies according to the manufacturer's instructions. Samples were analyzed in duplicate for murine/rat IL-17, murine IL-10, murine TNF, murine IL-4 (eBioscience), murine IFN-γ, rat IFN-γ, rat IL-4 (R&D, Minneapolis, Minn.), rat IL-10 and rat TNF (BD Biosciences). The results were calculated using standard curves made on the basis of known concentrations of the appropriate recombinant cytokines. […]
# rat LNC [3] = assay: Viability of rat LNC (MTT mitochondrial activity assay); format: cell-based; conditions: ConA, 24 hours, difference not statistically significant
# Description: Experimental animals (C57BL/6 mice, BALB/c mice and Dark Agouti rats) were obtained from the Animal House Facility of the Institute for Biological Research “Sinisa Stanković”, Belgrade, Serbia. Spleen cells (SPC) were isolated from murine spleens and lymph node cells (LNC) were obtained from rat cervical lymph nodes of untreated animals. Draining lymph node cells (DLNC) were obtained from popliteal lymph nodes 8-10 days after immunization of rats with myelin basic protein (guinea pig MBP, kind gift from professor Alexander Fluegel, University of Goettingen, Germany) and complete Freund's adjuvant (CFA, Difco, Detroit, Mich.). The organs were mechanically disrupted, passed through 40-μm nylon mesh filter and the resulting suspension was collected by centrifugation. Red blood cells from single cell suspensions obtained from spleens were lysed using RBC Lysis Buffer (eBioscience, San Diego, Calif.). […] Obtained purity of CD4 population was more than 97% as determined by flow cytometry. […]
# (§1) In order to assess the viability of SPC, LNC, DLNC and SCC by mitochondrial activity assay we used the mitochondrial-dependent reduction of 3-(4,5-dimethylthiazol-2-yl)-2,5-[…] bromide (MTT) to formazan. […] The absorbances in MTT assay were measured at […], with a correction at 690 nm, using an automated microplate reader (LKB 5060-006, LKB, Vienna, Austria).
# DLNC = assay: Viability of rat DLNC (MTT); format: cell-based; conditions: DLNC restimulated with MBP
# Description: Experimental animals (C57BL/6 mice, BALB/c mice and Dark Agouti rats) were obtained from the Animal House Facility of the Institute for Biological Research “Sinisa Stanković”, Belgrade, Serbia. Spleen cells (SPC) were isolated from murine spleens and lymph node cells (LNC) were obtained from rat cervical lymph nodes of untreated animals. Draining lymph node cells (DLNC) were obtained from popliteal lymph nodes 8-10 days after immunization of rats with myelin basic protein (guinea pig MBP, kind gift from professor Alexander Fluegel, University of Goettingen, Germany) and complete Freund's adjuvant (CFA, Difco, Detroit, Mich.). The organs were mechanically disrupted, passed through 40-μm nylon mesh filter and the resulting suspension was collected by centrifugation. […] Obtained purity of CD4 population was more than 97% as determined by flow cytometry. […]
# as §1
# Next, we determined the influence of Saq-NO on encephalitogen-specific generation of IFN-g and IL-17. […]
# [4] = mice subjected to the treatment; cited from earlier work
# [5] = system: melanoma, astrocytoma, prostate cancer cells and various human multidrug resistant tumor cell lines; conditions: cited from earlier work
SMILES,TNF-alpha synthesis (human PBMC; 10 to 20 μM),Synthesis of IL-2 and IFN-gamma production (human PBMC; concentration between 10 and 20 μM),PHA or anti-CD3-induced proliferation [1],"IL-1 beta, IL-10 and TNF-alpha production (spleen cells; in vivo exposure)",IFN-gamma and IL-2 secretion by spleen cells vs control mice (spleen cells; mice previously treated),"Release of the examined cytokines IFN-g, IL-17, IL-10 and TNF (rat LNC [2])",LNC viability (rat LNC [3]),DLNC viability (DLNC),Toxicity in mice [4],Anti-cancer properties in comparison to Saq [5]
"CC(C)(C)NC(=O)[C@@H]1C[C@@H]2CCCC[C@@H]2CN1C[C@@H](O)[C@H](Cc1ccccc1)NC(=O)[C@H](CC(N)=O)NC(=O)c1ccc2ccccc2n1 [Saq, (2S)—N-[(2S,3R)-4-[(3S)-3-(tert-butylcarbamoyl)-decahydroisoquinolin-2-iy]-3-hydroxy-1-phenylbutan-2-il]-2-(quinolin-2-ylformamido)butanediamide, reference compound]",without influencing,downregulate,inhibited,not modified,secreted more,–,–,–,–,–
"CC(C)(C)NC(=O)C1C[C@@H]2CCCC[C@@H]2CN1CC(O[N+](=O)[O-])[C@H](Cc1ccccc1)NC(=O)C(CC(N)=O)NC(=O)c1ccc2ccccc2n1 (stereo partly shown) [Saq-NO, nitric ester of Saquinavir]",–,–,–,–,–,dose-dependently inhibited,affected only with the highest dose,much less than its influence on IFN-g and IL-17 production,no toxicity,superior
